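Briefly, cells in 96-well plates were exposed to five compound concentrations for 48 h, and endpoints were estimated by linear interpolation. GI50 is the concentration that inhibits growth by half.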 Calls of active or inactive are those of the source. No stated cut-off is given here; in the data, active = GI50 up to about 1.1 µM and inactive = higher.
Columns and labels:
Experiment in all cases: NCI anticancer screen, dose series, 48 h
MDA-MB-231 = test system: MDA-MB-231
CCRF-CEM = test system: CCRF-CEM
Malme-3M = test system: Malme-3M
EKVX = test system: EKVX
Hs-578T = test system: Hs-578T
SF-539 = test system: SF-539
NCI-H23 = test system: NCI-H23
NCI-H460 = test system: NCI-H460
NCI-H522 = test system: NCI-H522
NCI-H226 = test system: NCI-H226
HCT-15 = test system: HCT-15
UACC-62 = test system: UACC-62
HCC 2998 = test system: HCC 2998
NCI/ADR-RES = test system: NCI/ADR-RES
HCT-116 = test system: HCT-116
SF-295 = test system: SF-295
SNB-75 = test system: SNB-75
OVCAR-8 = test system: OVCAR-8
K562 = test system: K562
HL-60 = test system: HL-60

Structure (SMILES) | GI50 (MDA-MB-231) | GI50 (CCRF-CEM) | GI50 (Malme-3M) | GI50 (EKVX) | GI50 (Hs-578T) | GI50 (SF-539) | GI50 (NCI-H23) | GI50 (NCI-H460) | GI50 (NCI-H522) | GI50 (NCI-H226) | GI50 (HCT-15) | GI50 (UACC-62) | GI50 (HCC 2998) | GI50 (NCI/ADR-RES) | GI50 (HCT-116) | GI50 (SF-295) | GI50 (SNB-75) | GI50 (OVCAR-8) | GI50 (K562) | GI50 (HL-60)
COc1cc2c(cc1O)NC(=S)[C@@H]1CCCN1C2=O | > 100 µM (inactive) | 76.6 µM (inactive) | > 100 µM (inactive) | > 100 µM (inactive) | > 100 µM (inactive) | > 100 µM (inactive) | > 100 µM (inactive) | > 100 µM (inactive) | > 100 µM (inactive) | > 100 µM (inactive) | > 100 µM | > 100 µM (inactive) | > 100 µM (inactive) | > 100 µM (inactive) | > 100 µM (inactive) | 97.1 µM (inactive) | > 100 µM (inactive) | > 100 µM (inactive) | > 100 µM (inactive) | 
O=C1Nc2ccccc2/C1=C\c1c(-c2ccccc2)nc2n1CCS2 | 21.4 µM (inactive) | 24.7 µM (inactive) | 26.9 µM (inactive) | 17.7 µM (inactive) | 23.4 µM (inactive) | 18.7 µM (inactive) | 22.9 µM (inactive) | 17.3 µM (inactive) | 18.7 µM (inactive) |  | 18.6 µM | 13 µM (inactive) | 16.4 µM (inactive) | 23.1 µM (inactive) | 20.8 µM (inactive) | 17.3 µM (inactive) | 12.1 µM (inactive) | 31.3 µM (inactive) | 19.5 µM (inactive) | 18.2 µM (inactive)
COc1c(-c2nc3ccc(N4CCN(C)CC4)nc3[nH]2)cc(OC)c2[nH]c(CO)nc12 | 44.1 µM (inactive) |  | > 100 µM (inactive) | > 100 µM (inactive) | > 100 µM (inactive) | 22.5 µM (inactive) | > 100 µM (inactive) | > 100 µM (inactive) | 52.4 µM (inactive) | 36.1 µM (inactive) | > 100 µM | 82.2 µM (inactive) | 38.2 µM (inactive) | > 100 µM (inactive) | 54.7 µM (inactive) | > 100 µM (inactive) | 95.5 µM (inactive) | > 100 µM (inactive) | 58.1 µM (inactive) | 
C=CC1(CC/C(=C\[N+](=O)[O-])c2ccc(OC)c(OC)c2)OCC(C)(C)CO1 | 25.9 µM (inactive) | 7.57 µM (inactive) | 23.2 µM (inactive) | 18 µM (inactive) | 24 µM (inactive) |  | 14.1 µM (inactive) | 18.2 µM (inactive) | 13.8 µM (inactive) | 16.4 µM (inactive) | 12.7 µM | 13.2 µM (inactive) | 24.5 µM (inactive) | 13.9 µM (inactive) | 18.9 µM (inactive) | 18.7 µM (inactive) |  | 15.2 µM (inactive) | 6.61 µM (inactive) | 5.27 µM (inactive)
CCCC(=O)OCOC(=O)N(C)/N=N/c1ccc(C(=O)OCC)cc1 | 36.5 µM (inactive) | 37.6 µM (inactive) | 20.1 µM (inactive) | 37.9 µM (inactive) | 27.7 µM (inactive) |  | 24.3 µM (inactive) | 8.97 µM (inactive) | 17.3 µM (inactive) | 92.7 µM (inactive) | 19.9 µM | 15.4 µM (inactive) | 15.2 µM (inactive) | 28.9 µM (inactive) | 21.1 µM (inactive) | 15.8 µM (inactive) | 26.5 µM (inactive) | 27.4 µM (inactive) | 47.6 µM (inactive) | 
CC[C@H](C)[C@H](NC(=O)[C@H](Cc1ccc(O)cc1)NCC(F)(F)F)C(=O)OC(C)(C)C | 7.28 µM (inactive) |  | 10.2 µM (inactive) | 6.87 µM (inactive) | 10.3 µM (inactive) | 9.71 µM (inactive) | 8.59 µM (inactive) | 6.22 µM (inactive) | 7.31 µM (inactive) | 9.06 µM (inactive) | 10.5 µM | 5.69 µM (inactive) | 7.29 µM (inactive) | 11.7 µM (inactive) | 7.18 µM (inactive) | 6.9 µM (inactive) | 7.89 µM (inactive) | 12.4 µM (inactive) | 8.61 µM (inactive) | 
CC(C)C1=C(Cc2ccccc2)C(=O)O/C1=C\c1ccc(O)c(Cl)c1 | 16.2 µM (inactive) | 15.5 µM (inactive) | 15.8 µM (inactive) | 16.6 µM (inactive) | 13.6 µM (inactive) | 18.6 µM (inactive) | 13.1 µM (inactive) | 17.4 µM (inactive) |  | 16.6 µM (inactive) | 16 µM | 14.8 µM (inactive) | 14.6 µM (inactive) | > 10 µM (inactive) | 15.5 µM (inactive) | 16 µM (inactive) | 16.9 µM (inactive) | 18.3 µM (inactive) | 16 µM (inactive) | 15.7 µM (inactive)
CC[C@]1(Cc2ccc(OC)c(OC)c2)CN(S(=O)(=O)c2ccc(C)cc2)C[C@@H]1OC(C)=O | > 100 µM (inactive) | > 100 µM (inactive) | > 100 µM (inactive) | > 100 µM (inactive) | > 100 µM (inactive) | 69.5 µM (inactive) | > 100 µM (inactive) | > 100 µM (inactive) |  | > 100 µM (inactive) | > 100 µM | > 100 µM (inactive) | > 100 µM (inactive) | > 100 µM (inactive) |  | 38.5 µM (inactive) | 41.9 µM (inactive) | 58.7 µM (inactive) | > 100 µM (inactive) | > 100 µM (inactive)
Cc1cc2ccccc2n2c1nc1ccc(O)cc12 | > 10 µM (inactive) | > 10 µM (inactive) | > 10 µM (inactive) | > 10 µM (inactive) | > 10 µM (inactive) | > 10 µM (inactive) | > 10 µM (inactive) | 5.36 µM (inactive) | 9.04 µM (inactive) |  | > 10 µM | > 10 µM (inactive) | > 10 µM (inactive) | > 10 µM (inactive) | > 10 µM (inactive) | > 10 µM (inactive) | 5 µM (inactive) | 7.29 µM (inactive) | > 10 µM (inactive) | > 10 µM (inactive)
Cc1cn(Cc2cccc(C3=NCCCN3)c2)c(=O)n(Cc2cccc(C3=NCCCN3)c2)c1=O | > 100 µM (inactive) | > 100 µM (inactive) | > 100 µM (inactive) | > 100 µM (inactive) | > 100 µM (inactive) |  | > 100 µM (inactive) | > 100 µM (inactive) | > 100 µM (inactive) |  | > 100 µM | > 100 µM (inactive) | > 100 µM (inactive) | > 100 µM (inactive) | > 100 µM (inactive) | > 100 µM (inactive) | 83.6 µM (inactive) | > 100 µM (inactive) | > 100 µM (inactive) | > 100 µM (inactive)
COc1ccc(C2=NN(C(=O)c3ccc(Cl)cc3)C(O)(c3cc(F)c(Cl)cc3Cl)C2)cc1OC (stereo not drawn) | > 100 µM (inactive) | 1.99 µM (inactive) |  | 27.7 µM (inactive) | 24 µM (inactive) | > 100 µM (inactive) | 47.1 µM (inactive) | 9.14 µM (inactive) | 6.68 µM (inactive) | > 100 µM (inactive) | 8.28 µM |  | 8.24 µM (inactive) | 9.77 µM (inactive) | 6.14 µM (inactive) | 26 µM (inactive) |  | 58.1 µM (inactive) | 5.82 µM (inactive) | 0.495 µM (active)
COC(=O)[C@H](Cc1c[nH]c2ccccc12)NP(=O)(O)OCC1C=CC(n2cc(C)c(=O)[nH]c2=O)O1 (stereo partly drawn) | > 100 µM (inactive) | > 100 µM (inactive) |  | > 100 µM (inactive) | > 100 µM (inactive) |  | > 100 µM (inactive) |  |  | > 100 µM (inactive) | > 100 µM | > 100 µM (inactive) | > 100 µM (inactive) | > 100 µM (inactive) | > 100 µM (inactive) |  | > 100 µM (inactive) | > 100 µM (inactive) | > 100 µM (inactive) | > 100 µM (inactive)
CCOC(=O)c1c(N2CCOCC2)[nH]c(=O)c(C(c2ccc(N(C)C)cc2)c2c(O)c(C(=O)OCC)c(N3CCOCC3)[nH]c2=O)c1O | > 100 µM (inactive) | 54.2 µM (inactive) | > 100 µM (inactive) | > 100 µM (inactive) | > 100 µM (inactive) | > 100 µM (inactive) | > 100 µM (inactive) | > 100 µM (inactive) | > 100 µM (inactive) | > 100 µM (inactive) | > 100 µM | > 100 µM (inactive) | > 100 µM (inactive) | > 100 µM (inactive) | > 100 µM (inactive) | > 100 µM (inactive) | > 100 µM (inactive) | > 100 µM (inactive) | > 100 µM (inactive) | 
O=C1/C(=C/c2ccccc2)CCc2ccccc21 | 26.2 µM (inactive) | 4.02 µM (inactive) | 16.6 µM (inactive) | 17.8 µM (inactive) | 19.8 µM (inactive) | 16 µM (inactive) | 19.6 µM (inactive) | 26.1 µM (inactive) |  | 18.3 µM (inactive) | 25.6 µM | 17.9 µM (inactive) | 16.3 µM (inactive) | 28.4 µM (inactive) | 15.1 µM (inactive) | 17.7 µM (inactive) | 17.3 µM (inactive) | 25.6 µM (inactive) | 6.97 µM (inactive) | 16.9 µM (inactive)
CC(=O)O[C@H]1C(=O)[C@@]2(C)[C@H]([C@H](OC(=O)c3ccccc3)[C@]3(O)C[C@H](OC(=O)[C@H](O)[C@@H](NC(=O)c4ccccc4)c4ccc5ccccc5c4)C(C)=C1C3(C)C)[C@]1(OC(C)=O)CO[C@@H]1C[C@@H]2O | 0.0476 µM (active) | 0.0287 µM (active) | 0.179 µM (active) | 5.35 µM (inactive) | 0.0191 µM (active) | 0.0336 µM (active) | 0.0912 µM (active) | 0.0706 µM (active) | 0.0524 µM (active) |  | 1.54 µM | 0.0463 µM (active) | 0.0457 µM (active) | 15.7 µM (inactive) | 0.0266 µM (active) | 0.304 µM (active) | 0.0594 µM (active) | 0.091 µM (active) | 0.029 µM (active) | 0.0107 µM (active)

— ChEMBL document CHEMBL1201862, “PubChem BioAssay data set” (2004)
